Assay results published in ChEMBL document CHEMBL1201862, “PubChem BioAssay data set” (2004).
Structures can show the parent of a compound that is named as a salt. Activity calls are given as the source filed them.

Key:
Prothrombin = Prothrombin (Homo sapiens, UniProt P00734); experiment: Thrombin 1536 HTS Dose Response Confirmation. [Related pubchem assays: 1046 (Thrombin 1536 HTS; hits were confirmed in this assay)]; type: functional
[1] = HepG2 cell cytotoxicity, dose response, cytotoxicity control for non-replicating M. tuberculosis project (AID 489018); type: functional; settings: Mycobacterium tuberculosis
Aminopeptidase N = molecular target: T1, Aminopeptidase N (Plasmodium falciparum FcB1/Columbia, UniProt O96935); experiment: malaria alanyl aminopeptidase activity blockers – biochemical, fluorogenic H-Leu-NHMec substrate, 1536-well (AID 1445); parameters: species or system Plasmodium falciparum 3D7, 3D7
T1 sequence (O96935 whole entry): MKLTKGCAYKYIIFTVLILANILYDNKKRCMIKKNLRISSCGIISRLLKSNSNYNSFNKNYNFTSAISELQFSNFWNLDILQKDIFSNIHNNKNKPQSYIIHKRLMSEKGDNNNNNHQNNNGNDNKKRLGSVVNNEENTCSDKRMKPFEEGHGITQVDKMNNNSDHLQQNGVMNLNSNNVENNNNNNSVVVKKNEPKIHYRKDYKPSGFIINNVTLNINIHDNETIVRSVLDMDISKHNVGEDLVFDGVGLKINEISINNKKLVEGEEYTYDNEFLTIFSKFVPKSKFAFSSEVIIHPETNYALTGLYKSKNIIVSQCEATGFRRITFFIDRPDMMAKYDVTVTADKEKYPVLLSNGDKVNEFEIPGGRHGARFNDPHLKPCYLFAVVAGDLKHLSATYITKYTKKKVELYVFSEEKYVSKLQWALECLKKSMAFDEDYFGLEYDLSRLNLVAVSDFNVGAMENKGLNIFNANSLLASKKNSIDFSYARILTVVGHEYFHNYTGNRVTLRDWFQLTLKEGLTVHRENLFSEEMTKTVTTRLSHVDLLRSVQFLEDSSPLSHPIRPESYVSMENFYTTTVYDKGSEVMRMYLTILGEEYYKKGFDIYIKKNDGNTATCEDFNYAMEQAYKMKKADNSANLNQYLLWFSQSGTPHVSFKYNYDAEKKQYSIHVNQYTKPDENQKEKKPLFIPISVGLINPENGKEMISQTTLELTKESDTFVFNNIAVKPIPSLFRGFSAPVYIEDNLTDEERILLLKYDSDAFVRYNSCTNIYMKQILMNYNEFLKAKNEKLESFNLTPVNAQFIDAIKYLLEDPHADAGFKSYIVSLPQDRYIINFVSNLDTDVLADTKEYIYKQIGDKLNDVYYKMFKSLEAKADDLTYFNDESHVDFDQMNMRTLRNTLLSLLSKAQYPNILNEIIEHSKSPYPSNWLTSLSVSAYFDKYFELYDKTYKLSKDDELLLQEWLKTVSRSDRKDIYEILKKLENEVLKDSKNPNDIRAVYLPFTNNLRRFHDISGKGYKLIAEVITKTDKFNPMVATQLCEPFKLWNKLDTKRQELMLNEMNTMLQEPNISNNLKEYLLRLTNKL

Streptococcus = experiment: GAS UMAA2166 growth inhibition – luminescence, BacTiterGlo, counter-screen for streptokinase expression inhibitor project, dose response (AID 1915); type: functional, organism-based;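 also: potency for reduction of bacterial viability or growth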
[2] = system: Streptococcus sp. 'group A'; experiment: Streptococcus pyogenes SK(-)GAS viability under kanamycin – luminescence, BacTiterGlo, confirmation, counter-screen for streptokinase expression inhibitor project, dose response (AID 1900); type: functional, organism-based
[3] = THP-1 cell cytotoxicity, dose response, cytotoxicity control for non-replicating M. tuberculosis project (AID 489025); type: functional
[4] = Vero E6 cell cytotoxicity, dose response, cytotoxicity control for non-replicating M. tuberculosis project, secondary assay (AID 492998); type: functional, VeroE6; settings: Vero C1008
Streptokinase A = molecular target: T2, Streptokinase A (Streptococcus pyogenes serotype M1, UniProt P10520); experiment: viability-normalized secreted streptokinase activity reduction – plasminogen activation absorbance, OD405, dose response (AID 1914); type: functional, Streptococcus pyogenes M1 GAS;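 also: secreted streptokinase activity via plasminogen activation per viability signal from cell pellet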
T2 sequence (P10520 whole entry): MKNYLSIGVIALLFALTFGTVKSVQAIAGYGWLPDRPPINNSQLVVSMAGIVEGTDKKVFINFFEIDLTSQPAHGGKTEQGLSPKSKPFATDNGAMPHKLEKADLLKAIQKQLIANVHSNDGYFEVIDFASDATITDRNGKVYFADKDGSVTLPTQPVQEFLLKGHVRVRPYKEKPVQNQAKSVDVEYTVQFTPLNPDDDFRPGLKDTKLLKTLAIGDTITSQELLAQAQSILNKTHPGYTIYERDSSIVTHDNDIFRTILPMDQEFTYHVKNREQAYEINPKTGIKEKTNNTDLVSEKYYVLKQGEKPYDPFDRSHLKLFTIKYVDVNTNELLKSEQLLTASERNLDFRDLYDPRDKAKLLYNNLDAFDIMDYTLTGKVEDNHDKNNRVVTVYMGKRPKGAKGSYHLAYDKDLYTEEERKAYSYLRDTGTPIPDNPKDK

Cytochrome P450 2D6 = Cytochrome P450 2D6 (Homo sapiens, UniProt P10635);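 also: CYP2D6 member of a cytochrome P450 panel assay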
Cytochrome P450 2D6, sequence (P10635 whole entry): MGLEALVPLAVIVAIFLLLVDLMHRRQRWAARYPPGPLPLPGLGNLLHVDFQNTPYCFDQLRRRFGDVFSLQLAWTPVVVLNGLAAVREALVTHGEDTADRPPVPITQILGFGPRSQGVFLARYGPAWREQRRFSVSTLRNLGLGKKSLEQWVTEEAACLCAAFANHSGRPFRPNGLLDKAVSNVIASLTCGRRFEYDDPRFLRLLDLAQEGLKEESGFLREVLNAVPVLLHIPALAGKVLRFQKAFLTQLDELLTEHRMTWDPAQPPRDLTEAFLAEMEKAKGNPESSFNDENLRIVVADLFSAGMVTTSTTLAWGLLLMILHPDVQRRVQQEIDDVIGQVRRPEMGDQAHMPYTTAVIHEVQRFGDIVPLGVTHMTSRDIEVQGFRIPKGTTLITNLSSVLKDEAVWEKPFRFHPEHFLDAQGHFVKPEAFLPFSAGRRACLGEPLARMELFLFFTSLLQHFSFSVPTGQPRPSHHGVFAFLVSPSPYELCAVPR

[5] = Reduced DLD-1 viability, concentration-response, CellTiter-Glo luminescence (AID 1117352); type: functional
[6] = RKO cell viability reduction, dose response, CellTiter-Glo luminescence (AID 1117322); type: functional
[7] = cytotoxicity toward HT-29 cells – cell-based, CellTiter-Glo luminescence, IC50, dose response (AID 1117330); type: functional
[8] = SNU-C1 cell viability reduction, dose response, CellTiter-Glo luminescence (AID 1117323); type: functional, cell-based
[9] = cytotoxicity toward HCT116 cells – cell-based, CellTiter-Glo luminescence, IC50, dose response (AID 1117332); type: functional; settings: HCT-116
[10] = CellTiter-Glo luminescence survival assay, SW480 colon tumor line, concentration-response curve, half-maximal inhibitory concentration (AID 1117338); type: functional
[11] = HCT116 cell viability decrease, GSK3B pretreatment – CellTiter-Glo, IC50, dose response (AID 1117339); type: functional; settings: HCT-116
Cytochrome P450 1A2 = molecular target: T3, Cytochrome P450 1A2 (Homo sapiens, UniProt P05177);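 also: PubChem cytochrome P450 panel assay, CYP1A2 panel member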
T3 sequence (P05177 whole entry): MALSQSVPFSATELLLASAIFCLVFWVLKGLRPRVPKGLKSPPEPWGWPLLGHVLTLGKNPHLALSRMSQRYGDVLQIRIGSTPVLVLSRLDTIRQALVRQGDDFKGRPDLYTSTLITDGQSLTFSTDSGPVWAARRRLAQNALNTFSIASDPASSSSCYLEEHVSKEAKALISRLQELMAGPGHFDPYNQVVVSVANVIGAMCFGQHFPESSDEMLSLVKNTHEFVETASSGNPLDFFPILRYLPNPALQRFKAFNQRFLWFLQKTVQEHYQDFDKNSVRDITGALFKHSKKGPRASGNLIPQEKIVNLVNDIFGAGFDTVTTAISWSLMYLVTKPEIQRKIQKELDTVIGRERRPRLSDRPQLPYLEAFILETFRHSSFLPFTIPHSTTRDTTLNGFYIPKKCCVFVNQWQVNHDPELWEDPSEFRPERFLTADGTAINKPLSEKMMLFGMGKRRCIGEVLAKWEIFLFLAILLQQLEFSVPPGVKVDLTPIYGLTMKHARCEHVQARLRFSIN

[12] = cytotoxicity toward Colo320 cells – cell-based, CellTiter-Glo luminescence, IC50, dose response (AID 1117334); type: functional; settings: COLO 320
[13] = molecular target: T4, Heat shock factor protein 1 (Mus musculus, UniProt P38532); experiment: decrease of HSF1-responsive luciferase luminescence – cell-based, NIH3T3, dose retest, confirmation (AID 2382); type: functional;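 also: NIH3T3 fibroblasts with HSF1-driven luciferase reporter stressed by proteasome inhibitor MG132; luminescence from HSF1-driven luciferase expression after 8 hours of MG132 stress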
T4 sequence (P38532 whole entry): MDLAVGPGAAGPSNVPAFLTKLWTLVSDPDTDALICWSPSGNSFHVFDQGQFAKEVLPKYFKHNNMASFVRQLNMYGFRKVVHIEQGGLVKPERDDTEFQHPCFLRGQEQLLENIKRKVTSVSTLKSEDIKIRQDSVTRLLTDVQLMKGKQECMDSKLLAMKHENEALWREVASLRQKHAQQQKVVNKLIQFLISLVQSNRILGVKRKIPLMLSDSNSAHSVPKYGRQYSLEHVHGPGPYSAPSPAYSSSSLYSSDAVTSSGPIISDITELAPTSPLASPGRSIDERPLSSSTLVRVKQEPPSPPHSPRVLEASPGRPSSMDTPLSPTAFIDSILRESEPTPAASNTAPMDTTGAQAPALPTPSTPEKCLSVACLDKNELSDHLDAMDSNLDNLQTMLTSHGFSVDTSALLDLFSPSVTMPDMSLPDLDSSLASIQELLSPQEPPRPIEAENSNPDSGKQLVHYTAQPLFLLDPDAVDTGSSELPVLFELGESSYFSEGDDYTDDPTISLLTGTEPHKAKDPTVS

Estrogen receptor = molecular target: T5, Estrogen receptor (Homo sapiens, UniProt P03372);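 also: potency for inhibiting coactivator peptide recruitment to the receptor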
T5 sequence (P03372 whole entry): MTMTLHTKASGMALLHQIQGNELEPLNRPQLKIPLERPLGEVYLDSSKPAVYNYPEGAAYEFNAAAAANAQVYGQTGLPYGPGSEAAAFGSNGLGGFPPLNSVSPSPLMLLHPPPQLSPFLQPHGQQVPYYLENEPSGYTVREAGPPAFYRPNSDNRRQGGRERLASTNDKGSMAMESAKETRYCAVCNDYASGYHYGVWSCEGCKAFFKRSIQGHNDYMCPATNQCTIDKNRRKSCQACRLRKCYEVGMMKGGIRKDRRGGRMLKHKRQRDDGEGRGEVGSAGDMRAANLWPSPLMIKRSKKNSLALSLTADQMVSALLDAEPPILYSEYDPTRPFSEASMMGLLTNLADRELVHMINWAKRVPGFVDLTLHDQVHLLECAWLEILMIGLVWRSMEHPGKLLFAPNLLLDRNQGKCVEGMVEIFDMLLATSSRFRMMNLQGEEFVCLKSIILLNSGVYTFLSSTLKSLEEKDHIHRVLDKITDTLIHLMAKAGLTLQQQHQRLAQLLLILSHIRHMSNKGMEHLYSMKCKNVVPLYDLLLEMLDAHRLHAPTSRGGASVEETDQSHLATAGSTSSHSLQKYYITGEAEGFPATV

Estrogen receptor beta = Estrogen receptor beta (Homo sapiens, UniProt Q92731);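 also: recombinant ER-beta bound to coactivator SRC1 peptide in presence of estradiol agonist; inhibitors block coactivator peptide binding and lower the FRET signal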
Estrogen receptor beta, sequence (Q92731 whole entry): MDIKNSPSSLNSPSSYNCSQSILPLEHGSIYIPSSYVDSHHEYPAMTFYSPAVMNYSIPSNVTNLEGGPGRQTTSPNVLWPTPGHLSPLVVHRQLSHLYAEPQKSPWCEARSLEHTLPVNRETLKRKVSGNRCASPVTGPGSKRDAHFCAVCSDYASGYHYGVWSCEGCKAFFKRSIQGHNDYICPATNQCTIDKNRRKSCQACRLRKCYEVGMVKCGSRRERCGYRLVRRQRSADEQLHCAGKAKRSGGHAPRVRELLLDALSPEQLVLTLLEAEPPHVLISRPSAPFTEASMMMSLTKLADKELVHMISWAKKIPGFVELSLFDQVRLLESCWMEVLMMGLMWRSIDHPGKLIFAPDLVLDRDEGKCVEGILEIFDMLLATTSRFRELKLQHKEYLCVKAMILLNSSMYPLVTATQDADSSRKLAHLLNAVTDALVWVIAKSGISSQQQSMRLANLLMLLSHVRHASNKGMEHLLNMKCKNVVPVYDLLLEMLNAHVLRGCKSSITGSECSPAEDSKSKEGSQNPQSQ

With `Nc1nc(-c2cccnc2)nn1C(=O)c1ccccc1Cl` the IC50 (Prothrombin) was 0.0831 µM (active).
With `C/C(=N\NC(=O)c1ccccc1O)C1C(=O)c2ccccc2C1=O` the CC50 [1] was > 20 µM (active), the IC50 (Aminopeptidase N) was 12.8 µM (active) and the EC50 (Streptococcus) was 41 µM (active). For the same compound, the EC50 [2] was 3.62 µM (active), the CC50 [3] was 10.5 µM (active) and the CC50 [4] was 4.99 µM (active). For the same compound, the EC50 (Streptokinase A) was > 150 µM (not active).
For `CN1CCN(CCCN2c3ccccc3Sc3ccc(S(=O)(=O)N(C)C)cc32)CC1` [THIOPROPERAZINE MESYLATE], the AC50 (Cytochrome P450 2D6) was 6.31 µM (inconclusive), the IC50 [5] was 14.6 µM (inactive) and the IC50 [6] was 5.99 µM (inactive). The IC50 [7] was > 20 µM (inactive), the IC50 [8] was 2.12 µM (active) and the IC50 [9] was > 20 µM (inactive). For the same compound, the IC50 [10] was > 20 µM (inactive), the IC50 [11] was > 20 µM (inactive) and the AC50 (Cytochrome P450 1A2) was 12.6 µM (inconclusive). The IC50 [12] was 8.17 µM (inactive).
For `Cc1occc1C(=O)Nc1cc(C(F)(F)F)ccc1Cl`, the IC50 (Prothrombin) was > 50 µM (not active) and the EC50 [13] was > 195 µM (not active).
For `Cc1cccc(NC2=NC(=O)/C(=C3/C(=O)N(C)c4ccccc43)S2)c1C`, the IC50 (Estrogen receptor) was 32.9 µM (not active).
With `O=c1[nH]c2ccc(Br)cc2c(-c2ccccc2)c1CN1CCOCC1` the IC50 (Aminopeptidase N) was 54.2 µM (active).
With `Cc1nn(Cc2ccccc2Cl)c(C)c1C(=O)NCc1ccco1` the IC50 (Estrogen receptor beta) was > 50 µM (not active).
